# Patent publication US6482921B1, “Uridyl peptide antibiotic (UPA) derivatives, their synthesis and use” (Essential Therapeutics, Inc., priority 1999, dated 2002)
# Assays:
# [1] = tested on: Staphylococcus aureus 8325-4; test: MIC broth microdilution, S. aureus 8325-4 (wild type); assay type: cell-based; details: S. aureus 8325-4
# [2] = tested on: Pseudomonas aeruginosa PAM 1323; test: MIC broth microdilution, P. aeruginosa PAM 1323 (medium level UPA resistance); assay type: cell-based
# [3] = tested on: Mycobacterium smegmatis ATCC 19420; test: MIC broth microdilution, M. smegmatis ATCC 19420; details: 72 hours at 35° C., CAMHB
# [4] = tested on: Pseudomonas aeruginosa PAM 1020; test: MIC broth microdilution, P. aeruginosa PAM 1020 (wild type); assay type: cell-based; details: P. aeruginosa PAM 1020
# [5] = tested on: Escherichia Coli MC 4100 AcrAB; test: MIC broth microdilution, E. coli MC 4100 AcrAB (ΔAcrAB); assay type: cell-based; details: E. coli AcrAB
# [6] = tested on: Staphylococcus aureus ATCC 29213; test: MIC broth microdilution, S. aureus ATCC 29213 (wild type); assay type: cell-based; details: S. aureus ATCC 29213
# [7] = tested on: Pasteurella multocida pm002; test: MIC broth microdilution, P. multocida pm002 (wild type); assay type: cell-based
# [8] = tested on: Escherichia Coli MC 4100; test: MIC broth microdilution, E. coli MC 4100 (wild type); assay type: cell-based; details: E. coli MC 4100
# [9] = tested on: Pseudomonas aeruginosa PAM 1154; test: MIC broth microdilution, P. aeruginosa PAM 1154 (OprM::Hg); assay type: cell-based; details: P. aeruginosa PAM 1154 OprM::Hg
# [10] = tested on: Pseudomonas aeruginosa PAM 1135; test: MIC broth microdilution, P. aeruginosa PAM 1135 (high level UPA resistance); assay type: cell-based; details: P. aeruginosa PAM 1135 UPA1^r
# [11] = tested on: Mycobacterium tuberculosis TN913; test: MIC agar dilution, M. tuberculosis TN913; assay type: cell-based
# [12] = tested on: Mycobacterium fortuitum ATCC 6841; test: MIC broth microdilution, M. fortuitum ATCC 6841; details: 72 hours at 35° C., CAMHB
# [13] = tested on: Mycobacterium tuberculosis H37Rv; test: MIC agar dilution, M. tuberculosis H37Rv; assay type: cell-based
# [14] = tested on: Escherichia Coli MC 4100 AcrAB UPA3r; test: MIC broth microdilution, E. coli MC 4100 AcrAB UPA3r (ΔAcrAB, UPA resistant); assay type: cell-based; details: E. coli AcrAB UPA3^r
SMILES,MIC (μg/ml) Broth microdilution [1],MIC (μg/ml) Broth microdilution [2],MIC Broth microdilution M. smegmatis ATCC19420 [3],MIC (μg/ml) Broth microdilution [4],MIC (μg/ml) Broth microdilution [5],MIC (μg/ml) Broth microdilution [6],MIC (μg/ml) Broth microdilution [7],MIC (μg/ml) Broth microdilution [8],MIC (μg/ml) Broth microdilution [9],MIC (μg/ml) Broth microdilution [10],MIC TN913 (SENSITIVE) [11],MIC Broth microdilution M. fortuitum ATCC 6841 [12],MIC H37RV (SENSITIVE) [13],MIC (μg/ml) Broth microdilution [14]
"CC(C)CC(N)C(=O)N(C)C(C)C(NC(=O)C(Cc1ccccc1)NC(=O)NC(Cc1c[nH]c2ccccc12)C(=O)O)C(=O)NCC1CC(O)C(n2ccc(=O)[nH]c2=O)O1 [Compound 159, 1-[5′-[(2S,3S)-N^2-[N-[[(1S)-1-Carboxy-2-indol-3-ylethyl]carbamoyl]-L-phenylalanyl]l-N^3-L-leucyl-N^3-methyl-2,3-diaminobutyramido]-3′,5′-dideoxy-α-L-arabinofuranosyl]uracil]",>512 µg/mL,256 µg/mL,8 µg/mL,128 µg/mL,2 µg/mL,>512 µg/mL,128 µg/mL,>512 µg/mL,8 µg/mL,256 µg/mL,30 µg/mL,64 µg/mL,30 µg/mL,64 µg/mL
"CC(N)C(=O)N(C)C(C)C(NC(=O)C(Cc1ccccc1)NC(=O)NC(Cc1ccc2ccccc2c1)C(=O)O)C(=O)NCC1CC(O)C(n2ccc(=O)[nH]c2=O)O1 [Compound 133, 1-[5′-[(2S,3S)-N^3-L-Alanyl-N^2-[N-[[(1S)-1-carboxy-2-naphthalenethyl]carbamoyl]-L-phenylalanyl]-N^3-methyl-2,3-diaminobutyramido]-3′,5′-dideoxy-α-L-arabinofuranosyl]uracil]",128 µg/mL,>512 µg/mL,8 µg/mL,64 µg/mL,<1 µg/mL,256 µg/mL,256 µg/mL,256 µg/mL,32 µg/mL,>512 µg/mL,30 µg/mL,32 µg/mL,30 µg/mL,32 µg/mL
"CC(N)C(=O)N(C)C(C)C(NC(=O)C(Cc1ccc(F)cc1)NC(=O)NC(Cc1c[nH]c2ccccc12)C(=O)O)C(=O)NCC1CC(O)C(n2ccc(=O)[nH]c2=O)O1 [Compound 158, 1-[5′-[(2S,3S)-N^3-L-Alanyl-N^2-[N-[[(1S)-1-carboxy-2-indol-3-ylethyl]carbamoyl]-L-4-fluorophenylalanyl]-N^3-methyl-2,3-diaminobutyramidol-3′,5′-dideoxy-α-L-arabinofuranosyl]uracil]",512 µg/mL,256 µg/mL,1 µg/mL,64 µg/mL,<1 µg/mL,512 µg/mL,64 µg/mL,512 µg/mL,8 µg/mL,256 µg/mL,10 µg/mL,32 µg/mL,10 µg/mL,32 µg/mL
"CC(N)C(=O)N(C)C(C)C(NC(=O)C(Cc1ccc(C(F)(F)F)cc1)NC(=O)NC(Cc1c[nH]c2ccccc12)C(=O)O)C(=O)NCC1CC(O)C(n2ccc(=O)[nH]c2=O)O1 [Compound 146, 1-[5′-[(2S,3S)-N^3-L-Alanyl-N^2-[N-[[(1S)-1-carboxy-2-indol-3-ylethyl]carbamoyl]-L-4-(trifluoromethyl)phenylalanyl]-N^3-methyl-2,3-diaminobutyramido]-3′,5′-dideoxy-α-L-arabinofuranosyl]uracil]",256 µg/mL,>512 µg/mL,,256 µg/mL,2 µg/mL,512 µg/mL,64 µg/mL,512 µg/mL,32 µg/mL,>512 µg/mL,10 µg/mL,,10 µg/mL,64 µg/mL
"CC(N)C(=O)N(C)C(C)C(NC(=O)C(Cc1ccc(F)cc1)NC(=O)NC(Cc1ccc(O)cc1)C(=O)O)C(=O)NCC1CC(O)C(n2ccc(=O)[nH]c2=O)O1 [Compound 157, 1-[5′-[(2S,3S)-N^3-L-Alanyl-N^2-[N-[[(1S)-1-carboxy-4-hydroxyphenethyl]carbamoyl]-L-4-fluorophenylalanyl]-N^3-methyl-2,3-diaminobutyramido]-3′,5′-dideoxy-α-L-arabinofuranosyl]uracil]",512 µg/mL,>512 µg/mL,,128 µg/mL,<1 µg/mL,>512 µg/mL,256 µg/mL,4 µg/mL,16 µg/mL,>512 µg/mL,10 µg/mL,,10 µg/mL,<1 µg/mL
"CC(N)C(=O)N(C)C(C)C(NC(=O)C(Cc1ccc(-c2ccccc2)cc1)NC(=O)NC(Cc1c[nH]c2ccccc12)C(=O)O)C(=O)NCC1CC(O)C(n2ccc(=O)[nH]c2=O)O1 [Compound 155, 1-[5′-[(2S,3S)-N^3-L-Alanyl-N^2-[N-[[(1S)-1-carboxy-2-indol-3-ylethyl)carbamoyl]-L-4-biphenylalanyl]-N^3-methyl-2,3-diaminobutyramidol-3′,5′-dideoxy-α-L-arabinofuranosyl]uracil]",512 µg/mL,256 µg/mL,4 µg/mL,256 µg/mL,8 µg/mL,>512 µg/mL,32 µg/mL,512 µg/mL,64 µg/mL,512 µg/mL,10 µg/mL,32 µg/mL,10 µg/mL,512 µg/mL
"CC(N)C(=O)N(C)C(C)C(NC(=O)C(Cc1ccccc1)NC(=O)NC(Cc1c[nH]c2ccccc12)C(=O)O)C(=O)NCC1CC(O)C(n2ccc(=O)[nH]c2=O)O1 [Compound 164, 1-[5′-[(2S,3S)-N^3-L-Alanyl-N^2-[N-[[(1S)-1-carboxy-2-indol-3-ylethyl]carbamoyl]-L-phenylalanyl]-N^3-methyl-2,3-diaminobutyramido]-3′,5′-dideoxy-α-L-arabinofuranosyl]uracil]",128 µg/mL,256 µg/mL,,16 µg/mL,<1 µg/mL,256 µg/mL,128 µg/mL,512 µg/mL,4 µg/mL,256 µg/mL,10 µg/mL,,10 µg/mL,64 µg/mL
